Results: paper PMC11091889, “Silver Organometallics that are Highly Potent Thioredoxin and Glutathione Reductase Inhibitors: Exploring the Correlations of Solution Chemistry with the Strong Antibacterial Effects” (ACS Infectious Diseases, 2024)
Where two headings read alike, the source gives them in different places.

Columns and labels:
[1] = tested on: P. aeruginosa PA7 (DSM 24068); assay: microbe, parasite or virus in culture; type: cell-based, Pseudomonas aeruginosa; settings: for MIC: DSM24068, 22 h
Procedure: (§1) The antibacterial effect of the silver NHC complexes and selected ligands was evaluated in two Gram-positive [Enterococcus faecium, methicillin resistant S. aureus, (MRSA)] and in four Gram-negative (Acinetobacter baumannii, Escherichia coli, Klebsiella pneumoniae, and Pseudomonas aeruginosa) pathogenic bacterial strains using broth microdilution assays. The resulting minimal inhibitory concentrations (MICs, Table 2) and EC50 (Table S6) were determined by a curve fitting procedure. Silver nitrate (AgNO3), SSD, and various antibiotics were used as references.
(§2) The following strains of ESKAPE panel were utilized and maintained at 37 °C in MHB (21 g/L Müller Hinton broth, pH 7.4) or TSY (30 g/L trypticase soy broth, 3 g/L yeast extract, pH 7.0–7.2) media: A. baumannii (DSM 30007, ATCC 19606), E. coli (DSM1116, ATCC 9637), K. pneumoniae (DSM 11678, ATCC33495), P. aeruginosa PA7 (DSM 24068) in MHB; E. faecium (DSM 20477, ATCC 19434), and S. aureus MRSA (DSM 11822, ICB 25701) in TSY. MIC values were determined following a standardized protocol in broth microdilution assays. The compounds and reference substances (AgNO3 and SSD) were serially diluted from 64 to 1 μg/mL. Starting inocula of 2–8 × 10^5 CFU/mL in MHB or TSY media at 37 °C were used, and serial dilutions were carried out in 96-well microtiter plates in duplicate. After incubation of the plates for 22 h at 37 °C, the absorbance at 600 nm was measured using The Spark multimode microplate reader (Tecan Trading AG). The MIC values for the tested compounds were determined in three independent experiments and presented in μM with standard errors and also in μg/mL. Amikacin (P. aeruginosa), linezolid (S. aureus), and ciprofloxacin (all other strains) served as positive controls. The MIC and EC50 values were determined by curve fitting with Sigma Plot. To determine the effect of the culture medium on the activity of silver compounds, the assay was performed using MHB, TSY, or DMEM (Gibco). To observe the effect of individual components of TSY medium, antibacterial tests were performed using MHB with addition of tryptone (17 g/L) or yeast extract (3 g/L, both were purchased from Sigma).

[2] = tested on: E. coli (DSM1116, ATCC 9637); assay: microbe, parasite or virus in culture; type: cell-based, Escherichia coli
Procedure: as §1, §2

[3] = tested on: K. pneumoniae (DSM 11678, ATCC33495); assay: Broth microdilution antibacterial assay; type: cell-based, Klebsiella pneumoniae; settings: for EC50: read-out: EC50 K. pneumoniae
Procedure: as §1, §2

[4] = tested on: A. baumannii (DSM 30007, ATCC 19606); assay: Broth microdilution antibacterial assay; type: cell-based, Acinetobacter baumannii; settings: for EC50: read-out: EC50 A. baumannii
Procedure: as §1, §2

[5] = tested on: S. aureus MRSA (DSM 11822, ICB 25701); assay: microbe, parasite or virus in culture; type: cell-based, methicillin resistant S. aureus; settings: for EC50: read-out: EC50 MRSA
Procedure: as §1
The importance of the culture medium used in antibacterial assays has been pointed out for antibiotics and in particular for silver.[53]−[55] In our recent studies, tryptic soy yeast (TSY) broth has been used for growing Gram-positive bacteria. Two components thereof, tryptone and yeast extract, have been reported to affect the antibacterial activity of silver nitrate.[55] Moreover, such an effect was also observed for other media containing at least one of those components.[11],[53] […] Silver nitrate served as a reference, and three different growth media were studied, namely, Müller-Hinton Broth (MHB, commonly used for Gram-negative bacteria), TSY broth (commonly used for Gram-positive bacteria), and DMEM supplemented with 10% FCS (commonly used for growth of mammalian and human cells).
as §2

[6] = tested on: E. faecium (DSM 20477, ATCC 19434); assay: Broth microdilution antibacterial assay; type: cell-based, Enterococcus faecium
Procedure: as §1, §2

[7] = Escherichia coli, n = 3, MHB, 22 h, read-out: MIC E. coli (value in brackets)
[8] = mean ± standard error, n = 3, MHB
[9] = Pseudomonas aeruginosa, read-out: MIC P. aeruginosa (value in brackets), n = 3, MHB, 22 h
[10] = mean ± standard error, n = 3, MHB, 22 h
[11] = Klebsiella pneumoniae, 22 h, read-out: MIC K. pneumoniae (value in brackets)
[12] = Acinetobacter baumannii, 22 h, read-out: MIC A. baumannii (value in brackets)
[13] = Staphylococcus aureus, 22 h, read-out: MIC MRSA (value in brackets)
[14] = mean ± standard error, n = 3, TSY, 22 h
[15] = Enterococcus faecium, 22 h, read-out: MIC E. faecium (value in brackets)
[16] = Klebsiella pneumoniae, 22 h, read-out: MIC K. pneumoniae
[17] = Acinetobacter baumannii, 22 h, read-out: MIC A. baumannii

## NCC[C@H](O)C(=O)N[C@@H]1C[C@H](N)[C@@H](O[C@H]2O[C@H](CN)[C@@H](O)[C@H](O)[C@H]2O)[C@H](O)[C@H]1O[C@H]1O[C@H](CO)[C@@H](O)[C@H](N)[C@H]1O [amikacin, reference compound]
[1]; Pseudomonas aeruginosa, read-out: MIC P. aeruginosa
  MIC: 4.4 ± 1.3 µM
[1]; Pseudomonas aeruginosa, read-out: MIC P. aeruginosa (value in brackets)
  MIC: 2.6 µg/mL

## CC(C)[n+]1cn(Cc2ccccn2)c2ccccc21.[I-] [L3c, 1-Isopropyl-3-(pyridin-2-ylmethyl)-benzimidazolium Iodide]
[2]; [7]
  MIC: > 128 µg/mL
[2]; [8]
  EC50: > 250 µM
[2]; mean ± standard error, n = 3, MHB, 22 h, read-out: MIC E. coli
  MIC: > 250 µM
[1]; [9]
  MIC: > 128 µg/mL
[1]; [10]
  MIC P. aeruginosa: ≥ 250 µM
[1]; read-out: EC50 P. aeruginosa, mean ± standard error, n = 3, MHB
  EC50: ≥ 250 µM
[3]; [11]
  MIC: > 128 µg/mL
[3]; [10]
  MIC K. pneumoniae: > 250 µM
[3]; [8]
  EC50: > 250 µM
[4]; [12]
  MIC: > 128 µg/mL
[4]; [10]
  MIC A. baumannii: > 250 µM
[4]; [8]
  EC50: > 250 µM
[5]; [13]
  MIC: > 128 µg/mL
[5]; [14]
  MIC MRSA: > 250 µM
[5]; mean ± standard error, n = 3, TSY
  EC50: > 250 µM
[6]; [15]
  MIC: > 128 µg/mL
[6]; [14]
  MIC E. faecium: > 250 µM
[6]; read-out: EC50 E. faecium, mean ± standard error, n = 3, TSY
  EC50: > 250 µM

## CC(C)[n+]1cn(Cc2ccccn2)c2ccccc21.[Cl-] [L3a, 1-Isopropyl-3-(pyridin-2-ylmethyl)-benzimidazolium Chloride]
[2]; Escherichia coli, mean ± standard error, n = 3, MHB
  EC50: > 250 µM
[2]; Escherichia coli, mean ± standard error, n = 3, MHB, 22 h, read-out: MIC E. coli
  MIC: > 250 µM
[2]; [7]
  MIC: > 128 µg/mL
[1]; [9]
  MIC: > 128 µg/mL
[1]; Pseudomonas aeruginosa, read-out: MIC P. aeruginosa, mean ± standard error, n = 3, MHB, 22 h
  MIC: > 250 µM
[1]; Pseudomonas aeruginosa, DSM24068, read-out: EC50 P. aeruginosa, mean ± standard error, n = 3, MHB
  EC50: > 250 µM
[3]; [16]
  MIC: > 250 µM
[3]; [11]
  MIC: > 128 µg/mL
[3]; Klebsiella pneumoniae
  EC50: > 250 µM
[4]; [17]
  MIC: > 250 µM
[4]; [12]
  MIC: > 128 µg/mL
[4]; Acinetobacter baumannii
  EC50: > 250 µM
[5]; Staphylococcus aureus, 22 h, read-out: MIC MRSA
  MIC: > 250 µM
[5]; [13]
  MIC: > 128 µg/mL
[5]; Staphylococcus aureus
  EC50: > 250 µM
[6]; Enterococcus faecium, 22 h, read-out: MIC E. faecium
  MIC: > 250 µM
[6]; [15]
  MIC: > 128 µg/mL
[6]; Enterococcus faecium, read-out: EC50 E. faecium, mean ± standard error, n = 3, TSY
  EC50: > 250 µM

## O=C(O)c1cn(C2CC2)c2cc(N3CCNCC3)c(F)cc2c1=O [ciprofloxacin, reference compound]
[2]; Escherichia coli, 22 h, read-out: MIC E. coli
  MIC: 0.5 µM
[2]; Escherichia coli, 22 h, read-out: MIC E. coli (value in brackets)
  MIC: 0.16 µg/mL
[2]; Escherichia coli, read-out: MIC E. coli DSM 1116 in MHB
  MIC: 0.47 µM
[2]; Escherichia coli, read-out: MIC E. coli DSM 1116 in MHB + tryptone
  MIC: 0.47 µM
[2]; Escherichia coli, read-out: MIC E. coli DSM 1116 in MHB + yeast extract
  MIC: 0.47 µM
[3]; [16]
  MIC: 2.5 ± 0.9 µM
[3]; [11]
  MIC: 0.8 µg/mL
[4]; [17]
  MIC: 0.63 ± 0.22 µM
[4]; [12]
  MIC: 0.2 µg/mL
[6]; Enterococcus faecium, 22 h, read-out: MIC E. faecium (value in brackets), n = 3, TSY, 22 h
  MIC: 5 µg/mL
[6]; Enterococcus faecium, 22 h, read-out: MIC E. faecium, mean ± standard error, n = 3, TSY, 22 h
  MIC: 15.1 ± 1 µM
